Source: patent US20150258104A1, “USE OF N[…] THE TREATMENT OF PAIN” (DemeRX, Inc., priority 2014, published 2015)

What was measured:
[1] = Pharmacokinetics of noribogaine in healthy volunteers, ascending single oral dose (plasma); conditions: mean, n = 6; for CL/F: fasted, plasma
[2] = Pupillometry (pupillary miosis) in healthy volunteers; type: in vivo, human; conditions: 3-60 mg, p>0.9
Method: (§1) Pulse oximetry and capnography data were collected continuously using a GE Carescape B650 monitoring system from 2 hours prior to dosing and until six hours after dosing, and thereafter at 12, 24, 48 and 72 hours post-dosing. […] Pupillary miosis was assessed by pupillometry.
Summary statistics (means, standard deviations, and coefficients of variation) were determined for each dose group for safety laboratory test data, ECG and pharmacokinetic parameters, and pharmacodynamic variables. Categorical variables were analysed using counts and percentages. Dose-proportionality of AUC and Cmax was assessed using linear regression. The effect of dose on pharmacodynamic parameter values over time was assessed using two-factor analysis of variance (ANOVA). Pairwise comparisons (with Tukey-Kramer adjustment) between each dose group to the placebo were conducted at each time point using the least squares estimates obtained from the ANOVA, using SAS Proc Mixed (SAS ver 6.0).

[3] = Cold pressor test in healthy volunteers; type: in vivo, human
Method: Analgesic effect was assessed based on duration of hand immersion in ice water and on visual analog scale (VAS) pain scores upon hand removal from the water bath.
(§2) Safety and tolerability of noribogaine were tested in the group of volunteers from Example 1. […] Safety evaluations included clinical monitoring, recording of adverse events (AEs), safety laboratory tests, vital signs, ECG telemetry from −2 h to 6 h after dosing, and 12-lead electrocardiograms (ECGs) up to 216 hours post-dosing.

[4] = Safety and tolerability of noribogaine in healthy humans; type: in vivo, human
Method: as §1, §2

[5] = Efficacy in opioid-dependent patients: time to resumption of OST and withdrawal scales (COWS, SOWS, OOWS); type: in vivo, human
Method: The efficacy of noribogaine in humans was evaluated in opioid-dependent participants in a randomized, placebo-controlled, double-blind trial. […] See U.S. application Ser. No. 14/214,157, filed Mar. 14, 2014 and Ser. No. 14/346,655, filed Mar. 21, 2014, which are incorporated herein by reference in their entireties.
Three cohorts of nine (9) subjects (6 administered noribogaine and 3 administered placebo in each cohort) were evaluated for tolerability, pharmacokinetics, and efficacy. Cohort 1 received a single dose of 60 mg noribogaine or placebo. Cohort 2 received a single dose of 120 mg noribogaine or placebo. Cohort 3 received a single dose of 180 mg noribogaine or placebo. […] Headaches were frequent in the placebo and 60 mg noribogaine treatment groups, but were attenuated in the 120 mg and 180 mg dose groups.
Patients were evaluated based on the Clinical Opiate Withdrawal Scale (COWS), Subjective Opiate Withdrawal Scale (SOWS), and Objective Opiate Withdrawal Scale (OOWS) scoring systems over the period of time between administration of noribogaine (or placebo) until resumption of OST. These scales are outlined in Guidelines for the Psychosocially Assisted Pharmacological Treatment of Opioid Dependence, World Health Organization, Geneva (2009), Annex 10, which is incorporated herein by reference in its entirety. The scales measure the intensity of withdrawal symptoms, based on clinical, subjective, and objective indicia.

[6] = Treatment emergent adverse events in opioid-dependent patients
[7] = Pharmacokinetics in opioid-dependent patients, Phase IB study, single dose; conditions: human, serum; for half-life / Vd/F: opioid-dependent patients
[8] = metabolite in plasma after single oral 30 mg noribogaine
[9] = metabolite in plasma after single oral 60 mg noribogaine
[10] = 60 mg, mean ± SD, Cohort 1 (60 mg)
[11] = 120 mg, range, Cohort 2 (120 mg)
[12] = 180 mg, range, Cohort 3 (180 mg)

Compound: CC[C@H]1C[C@@H]2C[C@H]3c4[nH]c5ccc(OC6OC(C(=O)O)C(O)C(O)C6O)cc5c4CCN(C2)[C@@H]13 (stereo partly shown) [noribogaine glucuronide]
- AUC0-216 [1, 8]: 25.7 ng·h/mL
- AUC0-∞ [1, 8]: 25.8 ng·h/mL
- Cmax [1, 8]: 1.8 ng/mL
- Tmax [1, 8]: 3.0 h
- t1/2 [1, 8]: 20.6 h
- AUC0-216 [1, 9]: 65.0 ng·h/mL
- AUC0-∞ [1, 9]: 67.1 ng·h/mL
- Cmax [1, 9]: 4.1 ng/mL
- Tmax [1, 9]: 3.8 h
- t1/2 [1, 9]: 23.1 h

Compound: CC[C@H]1CC2C[C@H]3c4[nH]c5ccc(O)cc5c4CCN(C2)C13 [noribogaine]
- pupil diameter, each dose group versus placebo (ANOVA, baseline adjusted) [2]: no statistically significant differences
- duration of hand immersion, each dose group versus placebo (ANOVA) ([3]; ice water, p>0.9): no statistically significant differences
- VAS pain scores, each dose group versus placebo (ANOVA) ([3]; upon hand removal, p=0.17): no statistically significant differences
- adverse events reported ([4]; 3 mg dose group, by two subjects): five
- adverse events reported ([4]; 10 mg dose group, single subject): one
- adverse events reported ([4]; 30 mg dose group, single subject): one
- intensity of adverse events ([4]; all dose groups, all resolved prior to study completion): mild-moderate
- withdrawal symptoms (COWS, OOWS, SOWS), first six hours after dosing ([5]; 120 mg): fewer withdrawal symptoms than the other patients
- time to resumption of OST, compared with untreated patients ([5]; 180 mg, also longer than 60 mg group): > 7 h
- withdrawal symptoms (COWS, OOWS, SOWS), noribogaine versus placebo ([5]; 60, 120, 180 mg): Patients administered placebo generally experienced more withdrawal symptoms than patients who were administered noribogaine
- headaches ([6]; 60 mg treatment group): frequent
- headaches ([6]; 120 mg and 180 mg dose groups): attenuated
- AUC ([7]; 60 mg): 1120 to 2550 ng·h/mL
- AUC(0-t) ([7]; 60 mg): 1090 to 2530 ng·h/mL
- Cmax ([7]; 60 mg): 41.3 to 113 ng/mL
- Tmax ([7]; 60 mg): 2.5 to 5 h
- half-life [7, 10]: 1760 ± 437 min
- half-life ([7]; 60 mg, range, Cohort 1 (60 mg)): 1100 to 2240 min
- Vd/F [7, 10]: 1440 ± 854 L
- Vd/F ([7]; 60 mg, range, Cohort 1 (60 mg)): 620 to 2770 L
- AUC ([7]; 120 mg): 1600 to 5770 ng·h/mL
- AUC(0-t) ([7]; 120 mg): 1560 to 5640 ng·h/mL
- Cmax ([7]; 120 mg): 139 to 230 ng/mL
- Tmax ([7]; 120 mg): 0.98 to 4.02 h
- half-life [7, 11]: 1310 to 2900 min
- Vd/F [7, 11]: 824 to 5240 L
- AUC ([7]; 180 mg): 3730 to 12300 ng·h/mL
- AUC(0-t) ([7]; 180 mg): 3720 to 10400 ng·h/mL
- Cmax ([7]; 180 mg): 205 to 338 ng/mL
- Tmax ([7]; 180 mg): 3 to 8 h
- half-life [7, 12]: 1160 to 2090 min
- Vd/F [7, 12]: 581 to 1610 L
- CL/F ([1]; single oral 3 mg): 41.4 L/h
- CL/F ([1]; single oral 10 mg): 42.3 L/h
- CL/F ([1]; single oral 30 mg): 46.9 L/h
- CL/F ([1]; single oral 60 mg): 34.0 L/h
